Measured values reported in US11530218B2, “Spiro compounds as inhibitors of KRAS” (Incyte Corporation, priority 2020, dated 2022).

How the values were obtained:
[1] = biological target: KRAS G12C (Homo sapiens, UniProt P01116, G12C); experiment: KRAS G12C GDP-GTP exchange assay (bodipy-GDP/GppNHp, SOS1); type: biochemical; conditions: bodipy-loaded KRAS G12C 2.5 nM, 2 hours pre-incubation with inhibitor, 2 hours exchange; read-out: G12C_exchange (KRAS_G12C exchange assay IC50)
Protocol: (§1) The inhibitor potency of the exemplified compounds was determined in a fluorescence based guanine nucleotide exchange assay, which measures the exchange of bodipy-GDP (fluorescently labeled GDP) for GppNHp (Non-hydrolyzable GTP analog) to generate the active state of KRAS in the presence of SOS1 (guanine nucleotide exchange factor). Inhibitors were serially diluted in DMSO and a volume of 0.1 μL was transferred to the wells of a black low volume 384-well plate. 5 μL/well volume of bodipy-loaded KRAS G12C diluted to 5 nM in assay buffer (25 mM Hepes pH 7.5, 50 mM NaCl, 10 mM MgCl2 and 0.01% Brij-35) was added to the plate and pre-incubated with inhibitor for 2 hours at ambient temperature. Appropriate controls (enzyme with no inhibitor or with a G12C inhibitor (AMG-510)) were included on the plate. The exchange was initiated by the addition of a 5 μL/well volume containing 1 mM GppNHp and 300 nM SOS1 in assay buffer. The 10 μL/well reaction concentration of the bodipy-loaded KRAS G12C, GppNHp, and SOS1 were 2.5 nM, 500 uM, and 150 nM, respectively. The reaction plates were incubated at ambient temperature for 2 hours, a time estimated for complete GDP-GTP exchange in the absence of inhibitor. For the KRAS G12D and G12V mutants, similar guanine nucleotide exchange assays were used with 2.5 nM as final concentration for the bodipy loaded KRAS proteins and with 4 hours and 3 hours incubation after adding GppNHp-SOS1 mixture for G12D and G12V respectively. A cyclic peptide described to selectively bind G12D mutant (Sakamoto et al., BBRC 484.3 (2017), 605-611) or internal compounds with confirmed binding were used as positive controls in the assay plates. Fluorescence intensities were measured on a PheraStar plate reader instrument (BMG Labtech) with excitation at 485 nm and emission at 520 nm.
(§2) Either GraphPad prism or XLfit was used to analyze the data. The IC50 values were derived by fitting the data to a four parameter logistic equation producing a sigmoidal dose-response curve with a variable Hill coefficient. Prism equation: Y=Bottom+(Top−Bottom)/(1+10^((Log IC50−X)*Hill slope)); XLfit equation: Y=(A+((B−A)/(1+((X/C)^D)))) where X is the logarithm of inhibitor concentration and Y is the response.

[2] = biological target: KRAS G12D (Homo sapiens, UniProt P01116, G12D); experiment: KRAS G12D GDP-GTP exchange assay (bodipy-GDP/GppNHp, SOS1); type: biochemical; conditions: bodipy loaded KRAS G12D 2.5 nM, 4 hours incubation after GppNHp-SOS1; read-out: G12D_exchange (KRAS_G12D exchange assay IC50)
KRAS G12D, sequence (P01116 1-188 isoform P01116-2 G12D): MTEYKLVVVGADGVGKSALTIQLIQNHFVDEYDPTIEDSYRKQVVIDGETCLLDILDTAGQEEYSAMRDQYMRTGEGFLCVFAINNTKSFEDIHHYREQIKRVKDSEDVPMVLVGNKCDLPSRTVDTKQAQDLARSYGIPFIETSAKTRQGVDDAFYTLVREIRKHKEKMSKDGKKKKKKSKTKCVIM
Protocol: as §1, §2

[3] = system: KRAS G12D (A427, HPAF-II cells); experiment: KRAS_G12D cellular pERK HTRF assay; type: cell-based; conditions: cells incubated with compound 2 hours; read-out: G12D_pERK (KRAS_G12D pERK assay IC50)
Protocol: (§3) MIA PaCa-2 (KRAS G12C; ATCC® CRL-1420), A427 (KRAS G12D; ATCC® HTB53), HPAF-II (KRAS G12D; ATCC® CRL-1997) and NCI-H838 (KRAS WT; ATCC® CRL-5844) cells are purchased from ATCC and maintained in RPMI 1640 media supplemented with 10% FBS (Gibco/Life Technologies). The cells are plated at 5000 cells per well (8 uL) into Greiner 384-well low volume, flat-bottom, tissue culture treated white plates and incubated overnight at 37° C., 5% CO2. The next morning, test compound stock solutions are diluted in media at 3x the final concentration, and 4 uL are added to the cells. The plate is mixed by gentle rotation for 30 seconds (250 rpm) at room temperature. The cells are incubated with the KRAS G12C and G12D compounds for 4 hours or 2 hours respectively at 37° C., 5% CO2.
(§4) 4 uL of 4× lysis buffer with blocking reagent (1:25) (Cisbio) are added to each well and plates are rotated gently (300 rpm) for 30 minutes at room temperature. 4 uL per well of Cisbio anti Phospho-ERK 1/2 d2 is mixed with anti Phospho-ERK 1/2 Cryptate (1:1) are added to each well, mixed by rotation and incubated overnight in the dark at room temperature. Plates are read on the Pherastar plate reader at 665 nm and 620 nm wavelengths. IC50 determination is performed by fitting the curve of inhibitor percent inhibition versus the log of the inhibitor concentration using the GraphPad Prism 7 software.

[4] = system: KRAS G12C (MIA PaCa-2 cells); experiment: KRAS_G12C cellular pERK HTRF assay; type: cell-based, human; set-up: G12C_pERK (KRAS_G12C pERK assay IC50): scale not given here; conditions: cells incubated with compound 4 hours; for IC50: Homo sapiens, MIA PaCa-2, read-out: G12C_pERK (KRAS_G12C pERK assay IC50)
Protocol: as §3, §4

KRAS G12C, sequence (P01116 1-188 isoform P01116-2 G12C): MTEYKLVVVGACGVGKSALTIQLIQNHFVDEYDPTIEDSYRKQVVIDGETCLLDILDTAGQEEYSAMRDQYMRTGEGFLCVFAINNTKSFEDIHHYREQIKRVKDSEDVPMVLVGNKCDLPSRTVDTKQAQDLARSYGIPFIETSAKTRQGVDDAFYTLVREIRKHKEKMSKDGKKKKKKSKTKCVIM

Compound	IC50 [1] [nM]	IC50 [4] [nM]	also measured
C=CC(=O)N1CCC2(C1)Nc1c(cnc3c(F)c(-c4c(C)ccc5[nH]ncc45)c(Cl)cc13)NC2=O (racemic) [Example 9, 1′-Acryloyl-9-chloro-7-fluoro-8-(5-methyl-1H-indazol-4-yl)-1,4-dihydro-3H-spiro[pyrazino[2,3-c]quinoline-2,3′-pyrrolidin]-3-one]	1000 to 5000		
CC(C)CCN1C(=O)C2(CCCNC2)c2c1c(OC[C@@H]1CCCN1C)nc1c(F)c(-c3cc(O)cc4ccccc34)c(CCCC#N)cc21 (single isomer, unassigned) [Example 35a]			IC50 [2]: ≤ 100 nM; IC50 [3]: 5000 to 50000 nM
C=CC(=O)N1CCC2(CC1)Nc1c(cnc3c(F)c(-c4cc(O)ccc4Cl)c(Cl)cc13)NC2=O [Example 2, 1-Acryloyl-9′-chloro-8′-(2-chloro-5-hydroxyphenyl)-7′-fluoro-1′,4′-dihydro-3′H-spiro[piperidine-4,2′-pyrazino[2,3-c]quinolin]-3′-one]		1000 to 5000	
C=CC(=O)N1CCC2(CC1)Nc1c(cnc3c(F)c(-c4cccc5[nH]nc(C)c45)c(Cl)cc13)NC2=O [Example 3, 1-Acryloyl-9′-chloro-7′-fluoro-8′-(3-methyl-1H-indazol-4-yl)-1′,4′-dihydro-3′H-spiro[piperidine-4,2′-pyrazino[2,3-c]quinolin]-3′-one]	1000 to 5000		
C=CC(=O)N1CCC2(CC1)Nc1c(cnc3c(F)c(-c4c(F)cccc4OC)c(Cl)cc13)NC2=O [Example 5, 1-Acryloyl-9′-chloro-7′-fluoro-8′-(2-fluoro-6-methoxyphenyl)-1′,4′-dihydro-3′H-spiro[piperidine-4,2′-pyrazino[2,3-c]quinolin]-3′-one]	1000 to 5000		
C=CC(=O)N1CC2(C1)Nc1c(cnc3c(F)c(-c4c(O)cccc4F)c(Cl)cc13)NC2=O [Example 6, 1-Acryloyl-9′-chloro-7′-fluoro-8′-(2-fluoro-6-hydroxyphenyl)-1′,4′-dihydro-3′H-spiro[azetidine-3,2′-pyrazino[2,3-c]quinolin]-3′-one]		1000 to 5000	
C=CC(=O)N1CC2(C1)Nc1c(cnc3c(F)c(-c4c(C)ccc5[nH]ncc45)c(Cl)cc13)NC2=O [Example 7, 1-Acryloyl-9′-chloro-7′-fluoro-8′-(5-methyl-1H-indazol-4-yl)-1′,4′-dihydro-3′H-spiro[azetidine-3,2′-pyrazino[2,3-c]quinolin]-3′-one]		1000 to 5000	
C=CC(=O)N1CCC2(C1)Nc1c(cnc3c(F)c(-c4c(O)cccc4F)c(Cl)cc13)NC2=O (centres unmarked) [Example 8, 1′-Acryloyl-9-chloro-7-fluoro-8-(2-fluoro-6-hydroxyphenyl)-1,4-dihydro-3H-spiro[pyrazino[2,3-c]quinoline-2,3′-pyrrolidin]-3-one]		1000 to 5000	
C=CC(=O)N1CCC2(CC1)Nc1c(c(OC[C@@H]3CCCN3C)nc3c(F)c(-c4c(O)cccc4F)c(Cl)cc13)NC2=O [Example 10, 1-Acryloyl-9′-chloro-7′-fluoro-8′-(2-fluoro-6-hydroxyphenyl)-5′-(((S)-1-methylpyrrolidin-2-yl)methoxy)-1′,4′-dihydro-3′H-spiro[piperidine-4,2′-pyrazino[2,3-c]quinolin]-3′-one]	≤ 100	1000 to 5000	
C=CC(=O)N1CCC2(CC1)Nc1c(c(OC[C@@H]3CCCN3C)nc3c(F)c(-c4cc(O)cc5ccccc45)c(Cl)cc13)NC2=O [Example 11, 1-Acryloyl-9′-chloro-7′-fluoro-8′-(3-hydroxynaphthalen-1-yl)-5′-(((S)-1-methylpyrrolidin-2-yl)methoxy)-1′,4′-dihydro-3′H-spiro[piperidine-4,2′-pyrazino[2,3-c]quinolin]-3′-one]	≤ 100		G12C_pERK (KRAS_G12C pERK assay IC50) [4]: ††
C=CC(=O)N1CCC2(CC1)Nc1c(c(OCCN3CCCCC3)nc3c(F)c(-c4c(O)cccc4F)c(Cl)cc13)NC2=O [Example 12, 1-Acryloyl-9′-chloro-7′-fluoro-8′-(2-fluoro-6-hydroxyphenyl)-5′-(2-(piperidin-1-yl)ethoxy)-1′,4′-dihydro-3′H-spiro[piperidine-4,2′-pyrazino[2,3-c]quinolin]-3′-one]		1000 to 5000	
C=CC(=O)N1CCC2(C1)C(=O)Nc1c(OC[C@@H]3CCCN3C)nc3c(F)c(-c4cc(O)cc5ccccc45)c(Cl)cc3c12 (stereo partly drawn) [Example 14, 1-Acryloyl-8′-chloro-6′-fluoro-7′-(3-hydroxynaphthalen-1-yl)-4′-(((S)-1-methylpyrrolidin-2-yl)methoxy)spiro[pyrrolidine-3,1′-pyrrolo[2,3-c]quinolin]-2′(3′H)-one]			G12C_pERK (KRAS_G12C pERK assay IC50) [4]: ††

Continued, in another order:

IC50 [1] [nM]	IC50 [4] [nM]	Compound	also measured
1000 to 5000		C=CC(=O)N1CCCC2(C1)C(=O)Nc1c(OC[C@@H]3CCCN3C)nc3c(F)c(-c4cc(O)cc5ccccc45)c(Cl)cc3c12 (mixture of isomers) [Example 15, 1-Acryloyl-8′-chloro-6′-fluoro-7′-(3-hydroxynaphthalen-1-yl)-4′-(((S)-1-methylpyrrolidin-2-yl)methoxy)spiro[piperidine-3,1′-pyrrolo[2,3-c]quinolin]-2′(3′H)-one]	
≤ 100		C=CC(=O)N1CCC2(CC1)C(=O)Nc1c(OC[C@@H]3CCCN3C)nc3c(F)c(-c4cc(O)cc5ccccc45)c(Cl)cc3c12 [Example 13, 1-Acryloyl-8′-chloro-6′-fluoro-7′-(3-hydroxynaphthalen-1-yl)-4′-(((S)-1-methylpyrrolidin-2-yl)methoxy)spiro[piperidine-4,1′-pyrrolo[2,3-c]quinolin]-2′(3′H)-one]	G12C_pERK (KRAS_G12C pERK assay IC50) [4]: ††
1000 to 5000		C=CC(=O)N1CCC2(CC1)CC(=O)c1cnc3c(F)c(-c4cc(O)cc5ccccc45)c(Cl)cc3c1O2 [Example 17, 1-Acryloyl-9′-chloro-7′-fluoro-8′-(3-hydroxynaphthalen-1-yl)spiro[piperidine-4,2′-pyrano[3,2-c]quinolin]-4′(3′H)-one]	
	1000 to 5000	C=CC(=O)N1CC2(C1)Nc1c(c(OC[C@@H]3CCCN3C)nc3c(F)c(-c4c(O)cccc4F)c(Cl)cc13)NC2=O [Example 18, 1-Acryloyl-9′-chloro-7′-fluoro-8′-(2-fluoro-6-hydroxyphenyl)-5′-(((S)-1-methylpyrrolidin-2-yl)methoxy)-1′,4′-dihydro-3′H-spiro[azetidine-3,2′-pyrazino[2,3-c]quinolin]-3′-one]	
